One data set can be described thus: in vivo. To be noted: zebrafish.
Data set [1] is described as follows: Toxicity in wild type zebrafish embryos assessed as dead embryo at 2000 ug/ml treated for 96 hrs post fertilization starting from 6 hrs post fertilization by inverted microscopic analysis relative to control. Format: organism-based, Danio rerio. To be noted: in vivo, read-out: Activity.
A short description of data set [2]: Toxicity in wild type zebrafish embryos assessed as dead embryo at 500 ug/ml treated for 96 hrs post fertilization starting from 6 hrs post fertilization by inverted microscopic analysis relative to control. Format: organism-based, Danio rerio. To be noted: in vivo, read-out: Activity.
Data set [3] in a line: Toxicity in wild type zebrafish embryos assessed as dead embryo at 100 ug/ml treated for 96 hrs post fertilization starting from 6 hrs post fertilization by inverted microscopic analysis relative to control. Format: organism-based, Danio rerio. To be noted: in vivo, read-out: Activity.
For data set [4], the species on record is Danio rerio. The data set can be described thus: Anti-melanogenic activity in wild type zebrafish 24 hrs post fertilization embryos assessed as decrease in body pigmentation at 100 ug/ml after 48 hrs. Format: functional, organism-based.
The species named for data set [5] is Danio rerio. As to the kind of experiment: Toxicity in wild type zebrafish embryos assessed as normal embryo at 2000 ug/ml treated for 96 hrs post fertilization starting from 6 hrs post fertilization by inverted microscopic analysis relative to control. Format: organism-based. Conditions: in vivo.
Data set [6] is filed under the species Danio rerio. The data set can be described thus: Toxicity in wild type zebrafish embryos assessed as normal embryo at 1000 ug/ml treated for 96 hrs post fertilization starting from 6 hrs post fertilization by inverted microscopic analysis relative to control. Format: organism-based. Conditions: in vivo.
The species entered for data set [7] is Danio rerio. As to the kind of experiment: Toxicity in wild type zebrafish embryos assessed as normal embryo at 100 ug/ml treated for 96 hrs post fertilization starting from 6 hrs post fertilization by inverted microscopic analysis relative to control. Format: organism-based. Conditions: in vivo.
The species entered for data set [8] is Danio rerio. The data set can be described thus: Toxicity in wild type zebrafish embryos assessed as growth retardation at 2500 ug/ml treated for 96 hrs post fertilization starting from 6 hrs post fertilization by inverted microscopic analysis relative to control. Format: organism-based. To be noted: in vivo.
The species entered for data set [9] is Danio rerio. As to the kind of experiment: Toxicity in wild type zebrafish embryos assessed as growth retardation at 2000 ug/ml treated for 96 hrs post fertilization starting from 6 hrs post fertilization by inverted microscopic analysis relative to control. To be noted: in vivo. Format: organism-based.
Data set [10] is filed under the species Danio rerio. As to the kind of experiment: Toxicity in wild type zebrafish embryos assessed as growth retardation at 1000 ug/ml treated for 96 hrs post fertilization starting from 6 hrs post fertilization by inverted microscopic analysis relative to control. Format: organism-based. Conditions: in vivo.
For data set [11], the species on record is Danio rerio. As to the kind of experiment: Toxicity in wild type zebrafish embryos assessed as growth retardation at 100 ug/ml treated for 96 hrs post fertilization starting from 6 hrs post fertilization by inverted microscopic analysis relative to control. Format: organism-based. To be noted: in vivo.
For data set [12], the species on record is Danio rerio. As to the kind of experiment: Toxicity in wild type zebrafish embryos assessed as notochord at 2000 ug/ml treated for 96 hrs post fertilization starting from 6 hrs post fertilization by inverted microscopic analysis relative to control. Format: organism-based. Conditions: in vivo.
The species entered for data set [13] is Danio rerio. As to the kind of experiment: Toxicity in wild type zebrafish embryos assessed as notochord at 500 ug/ml treated for 96 hrs post fertilization starting from 6 hrs post fertilization by inverted microscopic analysis relative to control. Format: organism-based. To be noted: in vivo.
For data set [14], the species on record is Danio rerio. As to the kind of experiment: Toxicity in wild type zebrafish embryos assessed as eyes at 1000 ug/ml treated for 96 hrs post fertilization starting from 6 hrs post fertilization by inverted microscopic analysis relative to control. To be noted: in vivo. Format: organism-based.
The species entered for data set [15] is Danio rerio. As to the kind of experiment: Toxicity in wild type zebrafish embryos assessed as otoliths at 1000 ug/ml treated for 96 hrs post fertilization starting from 6 hrs post fertilization by inverted microscopic analysis relative to control. Conditions: in vivo. Format: organism-based.
For data set [16], the species on record is Danio rerio. The data set can be described thus: Toxicity in wild type zebrafish embryos assessed as otoliths at 500 ug/ml treated for 96 hrs post fertilization starting from 6 hrs post fertilization by inverted microscopic analysis relative to control. Format: organism-based. To be noted: in vivo.
Data set [17] concerns Danio rerio. The data set can be described thus: Toxicity in wild type zebrafish embryos assessed as pericardial edema at 2500 ug/ml treated for 96 hrs post fertilization starting from 6 hrs post fertilization by inverted microscopic analysis relative to control. Format: organism-based. Conditions: in vivo.
Data set [18] relates to Danio rerio. As to the kind of experiment: Toxicity in wild type zebrafish embryos assessed as pericardial edema at 1000 ug/ml treated for 96 hrs post fertilization starting from 6 hrs post fertilization by inverted microscopic analysis relative to control. Format: organism-based. Conditions: in vivo.
For data set [19], the species on record is Danio rerio. The data set can be described thus: Toxicity in wild type zebrafish embryos assessed as heart beat at 2000 ug/ml treated for 96 hrs post fertilization starting from 6 hrs post fertilization by inverted microscopic analysis relative to control. Conditions: in vivo. Format: organism-based.
Data set [20] is filed under the species Danio rerio. The data set can be described thus: Toxicity in wild type zebrafish embryos assessed as blood circulation at 2500 ug/ml treated for 96 hrs post fertilization starting from 6 hrs post fertilization by inverted microscopic analysis relative to control. Conditions: in vivo. Format: organism-based.
Data set [21] is filed under the species Danio rerio. As to the kind of experiment: Toxicity in wild type zebrafish embryos assessed as blood circulation at 100 ug/ml treated for 96 hrs post fertilization starting from 6 hrs post fertilization by inverted microscopic analysis relative to control. Format: organism-based. Conditions: in vivo.
For data set [22], the species on record is Danio rerio. The data set can be described thus: Toxicity in wild type zebrafish embryos assessed as unhatched embryo at 2500 ug/ml treated for 96 hrs post fertilization starting from 6 hrs post fertilization by inverted microscopic analysis relative to control. Format: organism-based. To be noted: in vivo.
For data set [23], the species on record is Danio rerio. As to the kind of experiment: Toxicity in wild type zebrafish embryos assessed as unhatched embryo at 2000 ug/ml treated for 96 hrs post fertilization starting from 6 hrs post fertilization by inverted microscopic analysis relative to control. Format: organism-based. To be noted: in vivo.
The species entered for data set [24] is Danio rerio. As to the kind of experiment: Toxicity in wild type zebrafish embryos assessed as head malformation at 500 ug/ml treated for 96 hrs post fertilization starting from 6 hrs post fertilization by inverted microscopic analysis relative to control. Format: organism-based. Conditions: in vivo.
Data set [25] is filed under the species Danio rerio. As to the kind of experiment: Toxicity in wild type zebrafish embryos assessed as skeletal deformities at 1000 ug/ml treated for 96 hrs post fertilization starting from 6 hrs post fertilization by inverted microscopic analysis relative to control. Format: organism-based. Conditions: in vivo.
The species entered for data set [26] is Danio rerio. As to the kind of experiment: Toxicity in wild type zebrafish embryos assessed as skeletal deformities at 100 ug/ml treated for 96 hrs post fertilization starting from 6 hrs post fertilization by inverted microscopic analysis relative to control. Format: organism-based. To be noted: in vivo.
For data set [27], the system named is Neutrophil. As to the kind of experiment: Anti-melanogenic activity in mpx:GFP transgenic zebrafish 24 hrs post fertilization embryo neutrophils assessed as decrease in pigmentation at 2 to 2.5 mg/ml. Format: functional, cell-based. Conditions: Danio rerio.
The subject of data set [28] is Neutrophil. The data set can be described thus: Cytotoxicity against mpx:GFP transgenic zebrafish 24 hrs post fertilization embryo neutrophils assessed as loss in neutrophil at 2 to 2.5 mg/ml. Format: cell-based, Danio rerio.
For data set [29], the species on record is Danio rerio. As to the kind of experiment: Toxicity in wild type zebrafish embryos assessed as scoliosis at 2.5 ug/ml treated for 96 hrs post fertilization starting from 6 hrs post fertilization by inverted microscopic analysis relative to control. Format: organism-based. Conditions: in vivo.
In the next data set the target is T1, Tyrosinase (Danio rerio) (UniProt A0A8M1PAD4).
T1 sequence (whole entry): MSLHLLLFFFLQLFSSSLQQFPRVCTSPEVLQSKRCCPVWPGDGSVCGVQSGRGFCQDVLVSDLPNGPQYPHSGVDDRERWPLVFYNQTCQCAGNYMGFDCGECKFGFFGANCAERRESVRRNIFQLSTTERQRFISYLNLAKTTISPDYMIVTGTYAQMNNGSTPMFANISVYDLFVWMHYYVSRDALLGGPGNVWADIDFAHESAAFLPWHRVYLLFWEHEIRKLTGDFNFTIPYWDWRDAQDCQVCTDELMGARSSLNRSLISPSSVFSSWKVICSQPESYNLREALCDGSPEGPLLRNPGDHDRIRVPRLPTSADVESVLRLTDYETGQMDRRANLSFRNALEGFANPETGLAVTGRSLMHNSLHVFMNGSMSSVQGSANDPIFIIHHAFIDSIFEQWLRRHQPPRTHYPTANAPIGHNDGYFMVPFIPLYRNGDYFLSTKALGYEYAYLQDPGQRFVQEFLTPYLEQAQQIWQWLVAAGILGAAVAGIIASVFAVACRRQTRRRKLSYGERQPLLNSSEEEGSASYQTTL
The data set can be described thus: Inhibition of zebrafish embryo tyrosinase assessed as melanin production at 50 ug/ml after 48 hrs relative to control; values are per cent of control.

Active and inactive are the calls of the source. The rule behind the calls is not given here.

Description for in vivo: Toxicity in wild type zebrafish embryos assessed as dead embryo at 12.5 ug/ml treated for 96 hrs post fertilization starting from 6 hrs post fertilization by inverted microscopic analysis relative to control

On to `Oc1ccc(O)cc1` [HYDROQUINONE], for which the mortality at 12.5 ug/ml in the data set “in vivo” was determined as 66.7%.

Take `O=c1cc(CO)occ1O` [KOJIC ACID]: the mortality at 2000 ug/ml in data set [1] amounted to 0%. In addition, the mortality at 500 ug/ml in [2] is 0%. For the same compound, the mortality at 100 ug/ml in data set [3] was 0%. For the same compound, in the data set filed under Danio rerio [4], the outcome was inactive. Besides, the Activity in the data set listed under Danio rerio [5] is recorded as 0%; in the data set filed under Danio rerio [6], 1.67%; in the data set filed under Danio rerio [7], 65%; in the data set filed under Danio rerio [8], 35%; in the data set listed under Danio rerio [9], 3.33%; in the data set filed under Danio rerio [10], 0%. Besides, the Activity in the data set filed under Danio rerio [11], in the data set filed under Danio rerio [12], in the data set filed under Danio rerio [13], in the data set listed under Danio rerio [14], in the data set filed under Danio rerio [15] and in the data set listed under Danio rerio [16] was 0% each time. Moreover, the Activity turned out to be 100% with Danio rerio [17]; 98.33% in the data set on Danio rerio [18]; 96.67% in the data set filed under Danio rerio [19]; 10% in the data set listed under Danio rerio [20]; 0% in the data set filed under Danio rerio [21]; 0% in the data set filed under Danio rerio [22]. In addition, the Activity is recorded as 0% in the data set listed under Danio rerio [23]; 0% in the data set listed under Danio rerio [24]; 0% in the data set filed under Danio rerio [25]; 0% in the data set listed under Danio rerio [26]; “Toxic” in the data set on Neutrophil [28]; “Toxic” in the data set listed under Danio rerio [29]. Moreover, the outcome in the data set with Neutrophil [27] was Active.

As to `O=c1cc(-c2ccccc2)c2ccc(O)cc2o1`, the melanin content % of control on Tyrosinase (Danio rerio) was found to be 24%.
